From patent publication US7718768B2, “Biologically active peptide [sequence]” (CMS Peptides Patent Holding Company Limited, priority 2001, dated 2010)
Marks after values point to notes of the source that are not given here. No end group written: not given here.

What was measured:
Type in all cases: in vivo, BALB/c mice
NK cell = NK cell cytotoxicity activity test (YAC-1 target cells, MTT) on spleen cells of treated mice; conditions: IFN-γ and IL-2 groups 3×10^5 IU/kg/day, X ± SD
Procedure: (§1) The above substances were all dissolved in 0.5 ml saline and injected intraperitoneal (i.p.) for 15 continuous days, once per day.
(§2) Ten mice per group. The day after the last test substance administration, the mice were sacrificed by cervical dislocation. The spleen was isolated aseptically and manually dispersed in cold D-Hank's solution using an injection needle. The dispersed cell suspension was further sieved through a 100 gauge 150 μm diameter stainless steel sieve. After centrifugation at 200 g for 10 minutes, the supernatant was discarded. The cell pellet was re-suspended in 10 volume of Tris-NH4Cl buffer and then kept standing still for 10 minutes at room temperature. The suspended cells were collected by centrifugation at 150 g for 10 minutes. The cells were washed 2-4 times with cold D-Hank's solution by re-suspending and collecting by centrifugation with condition as described above. The washed cells were then diluted to the desired cell densities by RPMI-1640 culture medium, containing 10% fetal bovine serum.
Mice spleen cells were prepared to 4×10^6/ml as described in section 1.1 above. Target cells YAC-1 were brought to log phase and adjusted to 1×10^5/ml. Using a 96 wells cell culture plate, 100 μl mouse spleen cells and 100 μl culture medium were added to the control well containing only the spleen cells; 100 μl target cells and 100 μl culture medium were added to the control well containing only target cells; 100 μl mouse spleen cells and 100 μl target cells were added to the NK activity assay well. Three parallel sets of the above were prepared per mouse.
Samples were centrifuged at 150 g for 10 minutes to collect the cells. The supernatant was discarded and 50 μl/well MTT of 1 mg/ml was added. The reaction mixture was then shaken for 2 minutes, and incubated at 37° C., 5% CO2 for 4 hours. The supernatant was discarded after centrifugation at 150 g for 10 minutes. 120 μl 40 mM HCl-2-propanol was added and shaken for 3 minutes. An ELISA reader was used to obtain OD570nm of each well referenced at 630 nm.

anti-SRBC antibody = experiment: Sheep Red Blood Cell (SRBC) hemolysis test, anti-SRBC antibody formation; conditions: SRBC on day 12, IFN-γ and IL-2 groups 3×10^5 IU/kg/day, X ± SD
Procedure: Sheep red blood cells (SRBC) were prepared by collecting blood from cervical vein and put into a sterile flask with glass beads. The flask was shaken for 3 minutes and the blood then mixed with Alsever solution (glucose 2.05 g, NaCl 0.4 g, […] 0.8 g, adjust to 100 ml with distilled water) and stored at 4° C. Immediately before use, samples were centrifuged at 130 g, 5 minutes to collect the SRBC. The cells were washed two times by re-suspension and centrifugation in normal saline. Then the cell pellet was collected by centrifugation at 180 g for 10 minutes and re-suspended in saline to make the final working SRBC suspension, 2% (v/v).
Complement was prepared by adding 10 volumes of fresh Cavy serum into one volume centrifuge packed SRBC, and then gently shaking for 30 minutes at 4° C. The SRBC was removed by centrifugation at 200 g for 10 minutes. 10 volumes of normal saline were added to obtain the working complement solution.
The test substances were administered as described in section 1.1, plus intraperitoneal injection 0.2 ml SRBC per mouse on day 12. On the day after the last test substance administration (day 16), blood was collected from the eye canthus and left at room temperature for one hour for serum exudation. After centrifugation at 200 g for 10 minutes, the serum was diluted by 500 times with normal saline.
To 1 ml diluted mouse serum of each mouse, 0.5 ml SRBC suspension was added. Ice cold. Then 1 ml working complement solution was added and incubated at 37° C. water bath for 10 minutes. Reactions were terminated by ice cold. Samples were then centrifuged at 200 g for 10 minutes to obtain the supernatant.
To 1 ml of this supernatant, 3 ml Drabkin solution was added and left at room temperature for 10 minutes. OD540nm was obtained.
Reference OD540nm was obtained by mixing 0.25 ml SRBC suspension with Drabkin solution to 4 ml and placed at room temperature for 10 minutes before OD540nm was taken. Sample serum index=(OD540nm of test sample[…]reference OD540nm)×500 3. The Effect of Peptides on the Phagocytosis Function of Mononuclear Phagocyte and the Weight of Immune Organ^[8,9].

[1] = immunity organ weight test (thymus gland index, spleen index); conditions: X ± SD
Procedure: as §1
(§3) One day after the last test substance administration (day 16), the liver, spleen, and thymus gland were separated and blotted dry with filter paper and weighed. The phagocytosis index α was calculated as below: α=(^3√K)(W÷WLS) key: W: body weight WLS: weight of liver plus spleen Thymus gland index(%)=(thymus weight/body weight)×100% Spleen index(%)=(spleen weight/body weight)×100%

T lymphocyte [2] = experiment: T lymphocyte transformation test (ConA, MTT) on spleen cells of treated mice; design: key: OD of assay wells divided by OD of control wells; conditions: IFN-γ and IL-2 groups 3×10^5 IU/kg/day, X ± SD
Procedure: as §1, §2
(§4) Spleen cells of density 1×10^6/ml were placed onto a 96 wells cell culture plate, 100 μl/well, three parallel wells each of the assay sample and control sample per mouse. To the assay wells, 100 μl/well ConA of 100 μg/ml in RPMI-1640 was added, and 100 μl/well plain RPMI-1640 was used for the controls. The cells were incubated for 66 hrs at 37° C., 5% CO2. The cells were then pelleted by centrifugation at 150 g for 10 minutes.
50 μl/well MTT of 1 mg/ml in RPMI-1640 was added to the cell pellet and the cells re-suspended by shaking for 2 minutes. The incubation was continued for 4 hours. The supernatant was discarded after centrifugation at 150 g for 10 minutes. 120 μl 40 mM HCl-2-propanol was added to the cell pellet and shaken for 3 minutes. to obtain OD570nm of each well referenced at 630 nm. An ELISA reader was used
Each mouse formed three assay wells and three control wells. The Stimulation Index (SI) of each mouse was obtained by first deriving the average OD of the three parallel wells, then dividing the value of the assay wells by the control wells.

T lymphocyte [3] = experiment: T lymphocyte IL-2 secretion test (HT-2 cell bioassay of ConA supernatant); conditions: IFN-γ and IL-2 groups 3×10^5 IU/kg/day, X ± SD
Procedure: as §1, §4
HT-2 cells at log phase were collected by centrifugation at 150 g for 10 minutes, and washed three times with cold Hank's solution by re-suspension and centrifugation. The collected HT-2 cells were re-suspended in RPMI-1640 and incubated at 37° C., 5% CO2 for 30 minutes. The cells were further washed twice with RPMI-1640 by re-suspension and centrifugation, and re-suspended to final concentration of 2×10^5/ml with RPMI-1640.
rIL-2 was diluted to the following concentration with RPMI-1640: 500 IU/ml, 250 IU/ml, 125 IU/ml, 62.5 IU/ml, 31.25 IU/ml, and […].
A 96 well cell culture plate was set up with three parallel wells per combination:
Negative control: 100 μl RPMI-1640+100 μl HT-2 cell suspension
rIL-2 standard: 100 μl rIL-2 solution+100 μl HT-2 cell suspension
Assay well: 100 μl diluted supernatant+100 μl HT-2 cell suspension
The plate was incubated at 37° C., 5% CO2 for 68 hours, then centrifuged at 150 g for 15 minutes and the supernatant removed. 100 μl 0.5 mg/ml MTT in RPMI-1640 without phenolsulfonphthalein was added into each well. After shaking for 3-4 minutes to re-suspend the cells, continue to incubate for another 4 hours. Samples were then centrifuged at 150 g for 15 minutes and the supernatant was removed. To each well, 120 μl 40 mM HCl-2-propanol was added, mixed for 3-4 minutes and OD analyzed at 570 nm, referenced at 630 nm with an ELISA plate reader.
The average OD of the three parallel wells of each dilution was taken and plotted against concentration on a semi-log paper, concentration on the X-axis. The concentration at 50% OD saturation was obtained for both the testing supernatant and rIL-2.

mononuclear phagocyte = experiment: carbon particle clearance test, phagocytotic activity of mononuclear phagocyte; design: key: α = (cube root of K)×(body weight ÷ liver+spleen weight); conditions: peptide 0.5 μg/kg/day i.p. 15 days; IFN-γ and IL-2 groups 3×10^5 IU/kg/day; X ± SD
Procedure: On the next day after the last test substance administration (day 16), the mice were injected with […] body weight India ink (5 times dilution with normal saline) from the tail vein.
One minute and five minutes after Indian ink injection, 20 μl blood was obtained from the eye can thus with a heparinized tubing. The blood was mixed with 2 ml 0.1% w/v Na2CO3 and then OD680nm obtained. The outline clear index K was calculated by the following formula: K=(lgA1−lgA2)÷(t2−t1) Key: A1: OD680nm at first minute A2: OD680nm at fifth minute t2: 5 minutes […]
as §3

[4] = peptide 500 μg/kg/day i.p. 15 days
[5] = peptide 0.5 μg/kg/day i.p. 15 days
[6] = peptide 5 μg/kg/day i.p. 15 days
[7] = peptide 50 μg/kg/day i.p. 15 days
[8] = peptide 5 μg/kg/day i.p. 15 days, IFN-γ and IL-2 groups 3×10^5 IU/kg/day
[9] = peptide 50 μg/kg/day i.p. 15 days, IFN-γ and IL-2 groups 3×10^5 IU/kg/day
[10] = peptide 500 μg/kg/day i.p. 15 days, IFN-γ and IL-2 groups 3×10^5 IU/kg/day
[11] = peptide 0.5 μg/kg/day i.p. 15 days, IFN-γ and IL-2 groups 3×10^5 IU/kg/day

Substance	NK cell cytotoxic activity (NK cell activity index) (NK cell; [4])	anti-SRBC antibody formation (sample serum index) (anti-SRBC antibody; [5])	anti-SRBC antibody formation (sample serum index) (anti-SRBC antibody; [6])	anti-SRBC antibody formation (sample serum index) (anti-SRBC antibody; [7])	anti-SRBC antibody formation (sample serum index) (anti-SRBC antibody; [4])	weight of thymus gland (thymus gland index) [1, 8]	weight of thymus gland (thymus gland index) [1, 9]	weight of thymus gland (thymus gland index) [1, 10]	stimulation index (T lymphocyte transformation) (T lymphocyte [2]; [6])	stimulation index (T lymphocyte transformation) (T lymphocyte [2]; [4])	activity of T lymphocyte in secreting IL-2 (T lymphocyte [3]; [6])	activity of T lymphocyte in secreting IL-2 (T lymphocyte [3]; [4])	weight of spleen (spleen index) [1, 4]	weight of spleen (spleen index) [1, 9]	NK cell cytotoxic activity (NK cell activity index) (NK cell; [7])	weight of thymus gland (thymus gland index) [1, 11]	NK cell cytotoxic activity (NK cell activity index) (NK cell; [5])	stimulation index (T lymphocyte transformation) (T lymphocyte [2]; [7])	phagocytotic index (mononuclear phagocyte)
Phe Glu Ser Phe (FESF; listed as Sus scrofa) [CMS033]	89 ± 8 %	78 ± 12*^@ Unit	128 ± 39*^@^ Unit	112 ± 15*^@^ Unit	143 ± 27*^@^ Unit	0.20 ± 0.02 %	0.18 ± 0.03 %	0.25 ± 0.04*^@^ %	–	–	–	–	–	–	–	–	–	–	–
Ala Gly Asp Asp Ala Pro Arg Ala Val Phe (AGDDAPRAVF; listed as Sus scrofa) [CMS007]	–	–	122 ± 12*^@^ Unit	–	69 ± 17*^@ Unit	–	–	–	1.7 ± 0.1	1.6 ± 0.1	64 ± 12 IU	86 ± 15*^ IU	0.32 ± 0.05 %	–	–	–	–	–	–
Phe Asn Glu Glu (FNEE; listed as Sus scrofa) [CMS029]	87 ± 4 %	18 ± 7* Unit	147 ± 23*^@^ Unit	143 ± 13*^@^ Unit	115 ± 22*^@^ Unit	0.21 ± 0.03 %	0.18 ± 0.05 %	0.22 ± 0.04*^@^ %	–	1.7 ± 0.3	–	–	–	0.42 ± 0.04 %	–	–	–	–	–
TTYNSIM [CMS026]	89 ± 7 %	19 ± 6* Unit	191 ± 17*^@^ Unit	98 ± 9*^@^ Unit	–	0.31 ± 0.05*^@^ %	0.27 ± 0.02*^@^ %	0.20 ± 0.03*^ %	–	–	–	–	–	–	76 ± 9 %	0.21 ± 0.05 %	–	–	–
Ala Ala Phe [CMS023]	79 ± 12 %	108 ± 21*^@^ Unit	166 ± 27*^@^ Unit	84 ± 11*^@^ Unit	110 ± 45*^@^ Unit	0.23 ± 0.06 %	0.20 ± 0.02*^@^ %	–	–	–	–	–	0.36 ± 0.06 %	–	–	–	–	–	–
VVYPWTQRF [CMS002]	–	4 ± 1* Unit	–	–	87 ± 18*^@ Unit	0.24 ± 0.05*^ %	0.21 ± 0.02*^@^ %	–	–	1.8 ± 0.3	–	–	–	–	–	0.26 ± 0.06*^@^ %	76 ± 9 %	2.6 ± 0.3*^@^	–
Phe Glu Glu Asn Met (FEENM; listed as Sus scrofa) [CMS027]	88 ± 8 %	99 ± 14*^@^ Unit	117 ± 45*^@^ Unit	93 ± 11*^@^ Unit	–	–	0.21 ± 0.03*^@^ %	0.20 ± 0.03*^ %	–	–	–	–	0.37 ± 0.03 %	–	–	–	–	–	6.4 ± 0.6
